# Results taken from patent publication US20090031433A1, “METHODS FOR SCREENING INSECTICIDES” (priority 2004, published 2009).
# Key:
# [1] = tested on: D. melanogaster MUTANT strain (dhr96_hairpin / GAL4-arm, reduced dhr96 expression); assay: Topical application bioassay on adult females, dhr96 knockdown mutant strain; assay type: in vivo, Drosophila melanogaster; conditions: 50 ppm topical application, at 5 hours, 3 independent experiments
# Method: (§1) For testing on adults by topical application of compounds, a method has been adapted from Dapkus (Drosophila Information Newsletter, Volume 1, January 1991; http://jfly.iam.u-tokyo.ac.jp/html/din/DIN_Vol_01—9101.txt). 0-3 day old adult D. melanogaster females are anaesthetised using CO2, and 0.4 uL of compound dissolved in acetone is applied to the abdomens of these females using a Hamilton pipette. After compound application, the flies are cultured under normal conditions for the required time intervals, and either visually assessed (as in Example 6.2) or harvested for chemical analysis (Example 7). Ideally the experiment is repeated on 3 separate ocassions
# (§2) The effects of the compounds on the whole insects (larvae and adults) are monitored by visual assessment, daily or at a frequency as required. In one type of assessment, the mortality of the insects over time is scored. For example, if the adult test is used, the insects are monitored at time points that have been determined previously to be suitable for the experiment. The number of dead flies at each time point is scored.
# (§3) Bioassays are carried out as described above. In one example, the insecticide Malathion was applied to 20 females at a dose of 50 ppm per time point to be assessed, according to the topical application method described above. […]
# [2] = tested on: D. melanogaster control strains (CONTROL 1, CONTROL 2); assay: Topical application bioassay on adult females, control strains; assay type: in vivo, Drosophila melanogaster; conditions: 50 ppm topical application, by 5 hours, 3 independent experiments
# Method: as §1, §2, §3
structure (smiles),measurement,setting,value
CCOC(=O)CC(SP(=S)(OC)OC)C(=O)OCC (centres unmarked) [Malathion],mortality,[1],no or significantly reduced mortality
same,percentage mortality,[2],≥ 95%
